Values of other authors in US6963011B2, “N-(2-phenyl-3-aminopropyl)naphthamides” (Astrazeneca AB, priority 2000, dated 2005).
Read-outs that look alike come from different tables or passages of the source. Non-standard residues stand in square brackets, D forms with d. Residues, ends and D or L forms follow the SMILES beside them. *: point of attachment. Cyclohexanecarbonyl = O=C(C1CCCCC1)*

How the values were obtained:
[1] = Walsh et al., Psychopharmacology 121:186-191, 1995
[2] = not given; remark: listed apart in the source
[3] = Vassout et al., Neuropeptides 26/S1:38, 1994; only at 30 mg/kg bid
[4] = not given; remark: listed apart in the source
[5] = Stratton et al., Eur. J. Pharmacol. 250:R11-12, 1993
[6] = Walsh et al., Psychopharmacology 121:186-191, 1995
[7] = Teixeira et al., Eur J Pharmacol 311(1):7-14, 1996
[8] = Vassout et al., Neuropeptides 26/S1:38, 1994

| Structure (SMILES) | Outcome, Light-dark box [5] | Outcome, Light-dark box [6] | Outcome, Marmoset human intruder [1] | Outcome, Elevated plus-maze [2, 7] | other results |
| --- | --- | --- | --- | --- | --- |
| C[C@H](NC(=O)CNC(=O)C1CCCCC1)C(=O)N[C@H](Cc1c[nH]c2ccccc12)C(=O)N[C@@H](Cc1ccccc1)C(=O)N(C)C [GR100679] (Cyclohexanecarbonyl-GA[dW]F-NMe2) | anxiolytic | – | – | – | – |
| COC1(C[S@@+]([O-])c2ccccc2)CCN(CCc2c[nH]c3ccc(F)cc23)CC1 [GR159897] | – | anxiolytic | anxiolytic | – | – |
| CC(=O)NC1(c2ccccc2)CCN(CC[C@H](CN(C)C(=O)c2ccccc2)c2ccc(Cl)c(Cl)c2)CC1 [SR48968] | anxiolytic | anxiolytic | anxiolytic | anxiolytic | – |
| Cc1cc(C)cc(C(=O)N2CC[C@H](NCc3ccnc4ccccc34)C[C@H]2Cc2ccccc2)c1 [CGP 49823] | – | – | – | – | Outcome, Elevated plus-maze [2, 8]: inactive; Outcome, Forced swim test (depression model) [3]: antidepressant; Outcome, Social interaction ([4]; File, Pharm Bio B 58(3):747-752, 1997): anxiolytic; Outcome, Social interaction test [4, 8]: anxiolytic |
| CN(Cc1ccccc1)C(=O)[C@H](Cc1ccc2ccccc2c1)NC(=O)[C@@H]1C[C@@H](O)CN1C(=O)c1cn(C)c2ccccc12 [FK888] | – | – | – | anxiolytic | – |
